Assay [1] has as its system Staphylococcus aureus (S. aureus) ATCC6538. The assay is classed as cell-based. How it is done: (§1) A broth microdilution assay was performed to determine the minimum inhibitory concentration (MIC) for the oligoarginine peptides. Escherichia coli (E. coli) ATCC25922 and Staphylococcus aureus (S. aureus) ATCC6538 were used as model organisms for Gram-negative and Gram-positive bacteria, respectively. Both strains were cultured in LB broth for ∼18 h overnight at 37 °C and shaking set to 180 RPM. The culture was diluted to obtain a 0.01 optical density (OD) bacterial suspension in LB. Using a 96-well plate, oligoarginine concentrations ranging from 1 mM to 0.001 mM were obtained, and each peptide concentration was tested against both bacterial strains. The bacteria were incubated overnight at 37 °C for 18 h, and the lowest concentration of the treatment with no visible bacterial growth was recorded as the MIC of the respective oligoarginine treatment.

The subject of assay [2] is Escherichia coli (E. coli) ATCC25922. Format: cell-based. On the procedure:
as §1

Setting [3] is: LB broth, 1 mM to 0.001 mM, 18 h at 37 °C, no visible growth, average ± SEM, n = 9.

Molecules are shown by their SMILES. Read-outs that look alike come from different tables or passages of the source. Peptide text beside a SMILES is read from it.

Take `N=C(N)NCCC[C@H](NC(=O)[C@H](CCCNC(=N)N)NC(=O)[C@H](CCCNC(=N)N)NC(=O)[C@H](CCCNC(=N)N)NC(=O)[C@H](CCCNC(=N)N)NC(=O)[C@H](CCCNC(=N)N)NC(=O)[C@H](CCCNC(=N)N)NC(=O)[C@H](CCCNC(=N)N)NC(=O)[C@@H](N)CCCNC(=N)N)C(=O)O` [R9]: the “S. aureus MIC” value in assay [1] (ATCC6538, 18 h) turned out to be 1000 µM. Further, the “E. coli MIC” value in assay [2] (ATCC25922, 18 h) is above 1000 µM.
For the compound `N=C(N)NCCC[C@H](NC(=O)[C@H](CCCNC(=N)N)NC(=O)[C@@H](N)CCCNC(=N)N)C(=O)O` [R3] (H-Arg-Arg-Arg-OH), the “S. aureus MIC” value in assay [1] (ATCC6538, 18 h) is above 1000 µM. In addition, the “E. coli MIC” value in assay [2] (ATCC25922, 18 h) was above 1000 µM.
As for `N=C(N)NCCC[C@H](NC(=O)[C@H](CCCNC(=N)N)NC(=O)[C@H](CCCNC(=N)N)NC(=O)[C@H](CCCNC(=N)N)NC(=O)[C@H](CCCNC(=N)N)NC(=O)[C@@H](N)CCCNC(=N)N)C(=O)O` [R6], the “S. aureus MIC” value in assay [1] (ATCC6538, 18 h) was above 1000 µM. Besides, the “E. coli MIC” value in assay [2] (ATCC25922, 18 h) is above 1000 µM.
`N=C(N)NCCC[C@H](NC(=O)[C@H](CCCNC(=N)N)NC(=O)[C@H](CCCNC(=N)N)NC(=O)[C@H](CCCNC(=N)N)NC(=O)[C@H](CCCNC(=N)N)NC(=O)[C@H](CCCNC(=N)N)NC(=O)[C@H](CCCNC(=N)N)NC(=O)[C@H](CCCNC(=N)N)NC(=O)[C@H](CCCNC(=N)N)NC(=O)[C@H](CCCNC(=N)N)NC(=O)[C@H](CCCNC(=N)N)NC(=O)[C@@H](N)CCCNC(=N)N)C(=O)O` [R12]: the “S. aureus MIC” value in assay [1] (setting [3]) was 610 ± 220 µM. In assay [2] (setting [3]), the “E. coli MIC” value amounted to 940 ± 160 µM.
